Results as given in PMC7535918, “Uncovering a novel molecular mechanism for scavenging sialic acids in bacteria” (The Journal of Biological Chemistry, 2020).

Experiments:
RgNanOx [1] = target: T1, RgNanOx (Mediterraneibacter gnavus, UniProt A7B558); assay: differential scanning fluorimetry; type: binding; settings: […] NADH, […] protein, […] sodium phosphate pH […]
T1 construct: gene RUMGNA_02695; Gfo/Idh/MocA-class Rossmann fold; dimer in the asymmetric unit

RgNanOx [2] = target: T1, RgNanOx; assay: X-ray crystal structure of the complex ([…] and […] A); type: binding; settings: NAD+ bound at Rossmann fold; citric acid from crystallization buffer beside nicotinamide; sodium citrate pH […], PEG […]

Compound | ΔTm (RgNanOx [1]) | X-ray crystal structure of the complex (2.58 and 1.74 A) (RgNanOx [2])
NC(=O)C1=CN([C@@H]2O[C@H](COP(=O)(O)OP(=O)(O)OC[C@H]3O[C@@H](n4cnc5c(N)ncnc54)[C@H](O)[C@@H]3O)[C@@H](O)[C@H]2O)C=CC1 [NADH] | DSF analysis of RgNanOx and EcNanOx, the ΔTm is shown | –
NC(=O)c1ccc[n+]([C@@H]2O[C@H](COP(=O)(O)OP(=O)(O)OC[C@H]3O[C@@H](n4cnc5c(N)ncnc54)[C@H](O)[C@@H]3O)[C@@H](O)[C@H]2O)c1 [NAD^+] | – | crystal structure of the recombinant RgNanOx in complex with the NAD^+ cofactor was solved
